Measurements reported in US20140227173A1, “CANCER TREATMENT WITH GAMMA-SECRETASE INHIBITORS” (The Johns Hopkins University, priority 2006, published 2014).

Columns and labels:
E3LZ10.7 = experiment: Colony formation in soft agar after pre-treatment; type: cell-based, human
Description: (§1) (Top) Experimental scheme illustrating pre-treatment of pancreatic cancer cell lines with GSI-18, prior to plating for soft agar assays and subcutaneous injection in athymic mice. Treatment for 24 hours with GSI-18 or vehicle is followed by recovery in full serum for a further 24 hours minus the drug. Equal numbers of viable cells from the control and treated groups are then plated for colony assays in soft agar, or injected in nude mice. Of note, during the in vitro or in vivo assays, no further drug is administered. […] The dosage required for significant inhibition of clonogenicity varies between 2 μM (Capan-1) to 5 μM (E3LZ10.7). Bar graphs represent colony counts at two weeks, with mean and standard deviations calculated from triplicate experiments. (Left) Pre-treatment with GSI-18 inhibits tumorigenicity of Panc-1 pancreatic cancer cell line in athymic mice. […] Error bars represent standard deviation of five mice per arm.

D283 = experiment: Flow cytometric analysis of CD133-positive fraction; type: cell-based; conditions: 2 μM
Source text: (§2) The effects of Notch on the CD133-positive CSC subpopulation were first examined. Singh and colleagues have shown that only CD133-positive MB and glioblastoma cells are able to form multipotent neurosphere clones or tumor xenografts (6, 12). Another type of brain tumor, ependymoma, also appears to contain a small fraction of CD133-positive cells uniquely capable of initiating tumor xenografts (9). […] The D283Med and D425Med lines, which grow in suspension, contained higher percentages of CD133 positive cells. Sorting of DAOY cultures using magnetic beads coated with antibodies specific for CD133 generated an enriched population in which 30% of cells expressed the stem cell marker, and a negative population in which less than 1% of cells were CD133-positive. […] Thus Notch signaling appears to be especially active in CSC, raising the possibility that inhibition of this pathway may target the CSC population.
(§3) The DAOY, PFSK, D283 and D425 Med cell lines were obtained from the American Type Culture Collection. The low-passage MB line MB2 was derived from a tumor resected at Johns Hopkins Hospital. For treatment studies, cell were plated and allowed to grow overnight in MEM (Invitrogen, Carlsbad, Calif.) containing 10% FBS, then media was replaced the next morning with low serum (0.5% FBS) MEM containing GSI dissolved in DMSO. RNA and protein extractions, and all cell-based assays, were performed 48 hours after drug application unless otherwise noted. All experiments with error bars were performed in triplicate and shown as mean values with standard error unless otherwise noted. Cell mass was measured using CellTITER assays according to the manufacturer's instructions (Promega, Madison, Wis.). Cell number and viability were assessed using the Guava PCA and Viacount reagent according to instructions (Guava Technologies, Heyward, Calif.). Soft agar assays were performed as previously described (15) and scored either manually after 4 weeks or using as automated reader after 6 weeks. The constitutively active Akt stable cell line was made by transfecting DAOY cells with myristolated Akt (pCB6-IMy-Akt-HA) or control (pCB6+) plasmids (kind gifts from Susan J. Baker) and selecting and maintaining clones in 0.8 mg/ml G418. Soft agar assays were performed as previously described, with colonies counted using an automated reader (15).
(§4) Flow cytometric analysis of S-phase fraction and cell cycle kinetics was performed using a FACSCalibur (Becton Dickinson, San Jose, Calif.) with CELL Quest, version 3.3 software (15). CD133 studies were performed using the same instrument, with antibodies from Miltenyi (Miltenyi Biotec, Auburn, Calif.) according to the manufacturer's instructions. Cells expressing levels of CD133 higher than those seen in IgG controls were considered positive. For analyses of side population, cells (10^6/ml) were incubated with Hoechst 33342 (3 μM, Molecular Probes, Carlsbad, Calif.) for 90 minutes at 37° C. in DMEM containing 2% FBS. Prior to analysis, cells were washed and resuspended in 2 μg/ml PI (Sigma, St. Louis, Mo.). Cells were analyzed on a LSR flow cytometer equipped with 424/44 nm band pass and 670 nm long pass optical filters (Omega Optical, Brattleboro, Vt.). To ensure proper identification of SP cells, cells were incubated as above with the addition of 50 μM verapamil (Sigma).

DAOY [1] = experiment: as above; type: cell-based; conditions: 2 μM, 48 hours
Source text: as §2, §3, §4

D425 = experiment: as above; type: cell-based; conditions: 2 μM
Source text: as §2, §3, §4

PFSK = experiment: as above; type: cell-based; conditions: 2 μM, p<0.01
Source text: as §2, §3, §4

DAOY:NICD2 = experiment: Side population (Hoechst 33342 excretion) flow cytometry; type: cell-based; conditions: 2 μM GSI-18 or verapamil
Description: (§5) The ability to excrete Hoechst dye, which defines SP (also known as “side population”) in flow cytometric analyses, is another marker of tumor-initiating CSC in the blood and brain (7, 8, 20). SP was therefore analyzed to obtain a second measure of the effects of Notch on CSC.
(§6) Flow cytometric analysis of S-phase fraction and cell cycle kinetics was performed using a FACSCalibur (Becton Dickinson, San Jose, Calif.) with CELL Quest, version 3.3 software (15). CD133 studies were performed using the same instrument, with antibodies from Miltenyi (Miltenyi Biotec, Auburn, Calif.) according to the manufacturer's instructions. […] Prior to analysis, cells were washed and resuspended in 2 μg/ml PI (Sigma, St. Louis, Mo.). […] To ensure proper identification of SP cells, cells were incubated as above with the addition of 50 μM verapamil (Sigma).

D283Med = experiment: as above; type: cell-based; conditions: D283Med; 2 μM GSI-18 or verapamil
Description: as §5, §6

DAOY [2] = experiment: as above; type: cell-based; conditions: DAOY; 2 μM; untreated SP 1.9%
Description: as §5, §6

D425Med = experiment: as above; type: cell-based; conditions: D425Med; 2 μM GSI-18 or verapamil
Description: as §5, §6

[3] = system: Panc-1 pancreatic cancer cell line; experiment: Tumorigenicity of pre-treated cells injected subcutaneously in athymic mice; type: in vivo; conditions: five weeks post-injection; no further drug administered; five mice per arm
Description: as §1

[4] = Behavioral or physical changes in treated animals; type: in vivo, mice; conditions: 0.5 mg i.p. for five consecutive days
Description: As a test of the requirement for ongoing Notch activity during tumor engraftment, animals were treated with GSI-18 after subcutaneously injecting DAOY and DAOY:NICD2 cells into their left and right flanks. A treatment group of four mice received intraperitoneal injections containing 0.5 mg GSI-18 in DMSO for five consecutive days, beginning on the day of xenograft initiation, while the control group was treated with vehicle alone.

With `O=S(=O)(NC1C2CCC1Cc1ccccc1C2)c1cccs1` (stereo not drawn) [GSI-18, [11-endo]-N-(5,6,7,8,9,10-hexahydro-6,9-methanobenzo[α][8]annulen-11-yl)-thiophene-2-sulfonamide] the “colony formation following pre-treatment” value (E3LZ10.7; 24 hours pre-treatment, 24 hours recovery minus drug, colony counts at two weeks) was “Significant inhibition of colony formation”, the “dosage required for significant inhibition of clonogenicity” value (E3LZ10.7; pre-treatment) was 5 µM and the “decrease in the percentage of CD133-positive cells” value (D283) was “less pronounced”. The “fold reduction of CD133-positive stem-like fraction” value (DAOY [1]; p<0.01) was 3 fold, the “CD133-positive stem-like fraction after treatment” value (DAOY [1]; untreated 9.9%) was 3.3% and the “decrease in the percentage of CD133-positive cells” value (D425) was “less pronounced”. The “fold reduction in the percentage of CD133-positive cells” value (PFSK) was 4.8 fold, the “side population under NICD2 expression” value (DAOY:NICD2) was “protected the SP from GSI-18 exposure” and the side population (D283Med) was “ablated”. For the same compound, the “remaining cells negative for Hoechst dye (side population)” value (DAOY [2]) was 0.01%, the side population (D425Med) was “ablated” and the “tumor volumes from pre-treated cells” value [3] was “minimal tumor volumes”. For the same compound, the “behavioral or physical changes” value [4] was “No behavioral or physical changes were noted”.
